Assay results taken from the CheMixHub ionic liquid set.

Experiment: xn = mol fraction of the nth substance listed
Settings: for electrical conductivity: frequency 3 MHz

CCCC[n+]1ccn(C)c1.O=[N+]([O-])[O-] + CCO
101 kPa
Settings | viscosity [mPa·s]
283.15 K, x2 = 0.447 | 35.48
288.15 K, x2 = 0.352 | 51.47
288.15 K, x2 = 0.663 | 9.58
288.15 K, x2 = 0.748 | 6.39
293.15 K, x2 = 0.254 | 67.9
293.15 K, x2 = 0.4 | 31.2
293.15 K, x2 = 0.748 | 5.61
298.15 K, x2 = 0 | 159
298.15 K, x2 = 0.11 | 105.5
298.15 K, x2 = 0.2 | 58.3
298.15 K, x2 = 0.663 | 7.62
298.15 K, x2 = 0.748 | 4.83
303.15 K, x2 = 0.447 | 16.15
303.15 K, x2 = 0.6 | 10.1
303.15 K, x2 = 0.852 | 2.46
308.15 K, x2 = 0.11 | 59.6
308.15 K, x2 = 0.2 | 38.6
308.15 K, x2 = 0.352 | 21.4
308.15 K, x2 = 0.663 | 5.77
313.15 K, x2 = 0.11 | 47.55
313.15 K, x2 = 0.2 | 32.1
313.15 K, x2 = 0.254 | 29.2
318.15 K, x2 = 0.2 | 26.9
318.15 K, x2 = 0.254 | 24.53
318.15 K, x2 = 0.4 | 14.2
318.15 K, x2 = 0.852 | 1.9
328.15 K, x2 = 0.447 | 7.87
333.15 K, x2 = 0.254 | 15.52

CCOS(=O)(=O)[O-].CC[n+]1ccn(C)c1 + CC[n+]1ccn(C)c1.N#C[S-]
Settings | viscosity [mPa·s]
353.15 K, 100 kPa, x2 = 0 | 15

Cn1cc[n+](CCCN)c1.F[B-](F)(F)F + CS(C)=O
101 kPa
Settings | electrical conductivity [S/m] | viscosity [mPa·s]
293.15 K, x1 = 0.2997 | 0.537 | 42.06
293.15 K, x1 = 0.3997 | 0.334 | 58.56
293.15 K, x1 = 0.5999 | 0.151 | 96.13
293.15 K, x1 = 0.8998 | 0.032 | 161.7
298.15 K, x1 = 0.1003 | 1.08 | 10.17
298.15 K, x1 = 1 | 0.026 | 149.6
303.15 K, x1 = 0.2997 | 0.701 | 25.7
303.15 K, x1 = 0.7001 | 0.151 | 74.98
303.15 K, x1 = 0.8109 | 0.096 | 91.64
303.15 K, x1 = 0.8998 | 0.062 | 105.4
308.15 K, x1 = 0.8109 | 0.12 | 75.58
308.15 K, x1 = 1 | 0.055 | 100.2
313.15 K, x1 = 0.1003 | 1.544 | 5.27
313.15 K, x1 = 0.5999 | 0.323 | 40.83
313.15 K, x1 = 0.8109 | 0.15 | 62.45
318.15 K, x1 = 0.3997 | 0.71 | 19.73
318.15 K, x1 = 0.7001 | 0.264 | 42.06
323.15 K, x1 = 0.4998 | 0.576 | 22.1
323.15 K, x1 = 1 | 0.124 | 58.45
328.15 K, x1 = 0.1003 | 2.107 | 3.179
328.15 K, x1 = 0.2 | 1.611 | 6.358
328.15 K, x1 = 0.3997 | 0.922 | 14.21
333.15 K, x1 = 0.2997 | 1.4 | 8.621
333.15 K, x1 = 0.3997 | – | 12.05
338.15 K, x1 = 0.3997 | 1.17 | 10.36
338.15 K, x1 = 0.8109 | 0.381 | 26.89
338.15 K, x1 = 1 | 0.253 | 36.58
343.15 K, x1 = 0.1003 | 2.77 | 2.166
343.15 K, x1 = 0.5999 | 0.772 | 15.34
353.15 K, x1 = 0.3997 | 1.614 | 7.134
